Measurements: patent US20120149715A1, “COMPOUNDS AND METHODS FOR THE TREATMENT OF VIRAL INFECTIONS” (priority 2010, published 2012)

System: A/Vietnam/1194/04 H5N1 virus
Parameters: species or system BALB/c mice
Settings: mouse, in vivo

Substance: Nucleozin
- animals that survived for more than 21 days: 90%
- survival rate after inoculation compared with untreated controls (ip): significantly higher survival rate
